# Measurements published in PMC12040169 (PLOS Biology, 2025).
# Experiment: in vitro
# Conditions: human, hela cells, % viability
row,Compound,"viability at 28.5 h, 10 µM [%]"
1,C=CCn1c(NCc2ccccc2NS(=O)(=O)c2ccc(C)cc2)nc2ccccc21 [CBK266393],111
2,CCOC(=O)c1ccc(COc2cccc(-c3cnc4ccccc4n3)c2)cc1 [CBK266395],94.2
3,Nc1ccc(Oc2nc(Oc3ccc(N)cc3)c(F)c(Oc3ccc(N)cc3)c2F)cc1 [CBK266397C],110
4,O=C(Nc1ccccc1N1CCN(C(=O)c2ccc(Cl)cc2)CC1)c1ccc(-c2cccc([N+](=O)[O-])c2)o1 [CBK266398],93.3
5,CC1CCCN(c2ccc(NC(=O)c3cccs3)cc2[N+](=O)[O-])C1 (centres unmarked) [CBK266402],102
6,Cc1ccc(S(=O)(=O)N(CC(=O)Nc2cccnc2)c2cccc([N+](=O)[O-])c2)cc1 [CBK266404],86
7,O=C(CCC1CCCC1)Nc1nnc[nH]1 [CBK266406],100
8,COc1ccc(-c2nc3cc(C(C)C)ccc3o2)cc1NC(=O)Cc1ccc(Cl)cc1 [CBK266409],96.9
9,Cn1cc(C(c2ccccc2OCC(=O)O)c2cn(C)c3ccccc23)c2ccccc21 [CBK266410],112
10,C=CCSc1nnc(-c2ccccc2NC(=O)CC)c(O)n1 [CBK266411],115
11,Cc1nc(-c2ccccc2)sc1C(=O)C1=C(O)C(=O)N(CCN(C)C)C1c1ccccc1 (centres unmarked) [CBK266415],100
12,O=C(O)Cn1c2ccc(Br)cc2c2nc3ccccc3nc21 [CBK266416],97.1
13,NS(=O)(=O)c1ccc(NC2=NC(=O)C(CC(=O)Nc3ccccc3)S2)cc1 (centres unmarked) [CBK266417],98.2
14,COc1cccc(C(=O)C2=C(O)C(=O)N(CCCn3ccnc3)C2c2cccc(F)c2)c1 (centres unmarked) [CBK266419],107
15,COc1cccc2cc(C(=O)C3=C(O)C(=O)N(CCCN4CCOCC4)C3c3ccc(C)cc3)oc12 (centres unmarked) [CBK266420],106
16,COc1cc(CNn2cnnc2S)ccc1OCC(=O)NC(C)(C)C [CBK266429],92.5
17,O=C(COc1ccc(S(=O)(=O)NC2CCCC2)cc1)Nc1ccc2c(c1)OCCO2 [CBK266431],101
18,O=C(O)c1ccc(NC(=O)c2cn(-c3ccccc3)nc2-c2cc3ccccc3oc2=O)cc1 [CBK266432],99.8
19,COc1ccc2c(c1)C(C(C(=O)O)C(=O)O)c1ccccc1O2 (centres unmarked) [CBK266435],93.8
20,Cc1nnc(SCc2nc(N)nc(Nc3ccccc3)n2)s1 [CBK266436],109
21,COCCn1c(C)cc(C(=O)CSc2cc(C)c3ccccc3n2)c1C [CBK266437],70.3

row,Compound,"viability at 28.5 h, 10 µM [%]"
1,Cc1cc(Cl)c(S(=O)(=O)N2CCN(c3ccc(F)cc3)CC2)cc1OCC(N)=O [CBK266439],98.3
2,CCOC(=O)c1c(NC(=O)CSc2ncnc3sc(C)c(C)c23)sc(C)c1C [CBK266440],118
3,O=C(C1=C(O)C(=O)N(CCCN2CCOCC2)C1c1ccccn1)c1ccc(Cl)cc1 (centres unmarked) [CBK266445],112
4,CC1(C)CC(=O)C2=C(C1)Nc1ncnn1C2c1ccccc1F (centres unmarked) [CBK266446],88
5,N#Cc1nc(COc2cccc(Cl)c2)oc1NCc1ccncc1 [CBK266447],95.7
6,Cc1cc(C)nc(Nc2n[nH]c(-c3cccc4ccccc34)n2)n1 [CBK266451],99.3
7,Cc1cc(C)nc(NC2=NC3CCCCC3N2C(=O)Nc2ccc(Cl)c(Cl)c2)n1 (centres unmarked) [CBK266458],97.5
8,CS(=O)(=O)N(CC(=O)NCc1ccccn1)c1cc(Cl)cc(Cl)c1 [CBK266459],106
9,O=C(CSc1nnc2ccc3ccccc3n12)Nc1nsc(-c2ccc(Cl)cc2)n1 [CBK266460],99.5
10,O=C(O)CSC1c2ccccc2Oc2ccc(F)cc21 (centres unmarked) [CBK266462],98
11,Cc1cc(C)c(C)c(CSCc2nc3ccccc3[nH]2)c1C [CBK266466],98.8
12,NS(=O)(=O)c1ccc(NC(=O)c2cc3c(n(-c4ccccc4)c2=O)CCCC3=O)cc1 [CBK266467],115
13,N#Cc1nc(COc2ccc(Br)cc2)oc1NC1CC1 [CBK266470],94.6
14,CCN1CCN(c2ccc(NC(=O)c3cccc(OCc4ccccc4)c3)cc2)CC1 [CBK266471],95
15,Cc1oc(C)c(C(=O)Nc2cccc(C(=O)O)c2)c1C(=O)Nc1cccc(C(=O)O)c1 [CBK266472],108
16,CC(Nc1nc(N2CCNCC2)nc2ccccc12)c1ccccc1 (centres unmarked) [CBK266475],102
17,Cc1nc(-c2ccccc2)sc1C(=O)C1=C(O)C(=O)N(CCCN2CCOCC2)C1c1ccco1 (centres unmarked) [CBK266476],111
18,COc1ccc(OC)c(NC(=O)CC2NCCNC2=O)c1 (centres unmarked) [CBK266477],95.9
19,COc1ccc(N2C(=O)CC(Nc3ccc(Cc4nc5ccccc5[nH]4)cc3)C2=O)cc1 (centres unmarked) [CBK266480],96.9
20,Cc1cc(Cl)ccc1OC(C)C(=O)Nc1cc(C(=O)O)cc(C(=O)O)c1 (centres unmarked) [CBK266483],103
21,CCCc1cc(=O)[nH]c(N/C(=N/C(=O)c2ccccc2)Nc2ccc3c(c2)OCCO3)n1 [CBK266485],99.5

row,Compound,"viability at 28.5 h, 10 µM [%]"
1,O=C(CSc1nc2[nH]ncc2c(=O)n1-c1ccccc1)Nc1nsc(-c2ccccc2)n1 [CBK266486],101
2,COc1cc(S(=O)(=O)N2CCCN(S(=O)(=O)c3cc(OC)c(Cl)cc3OC)CC2)c(OC)cc1Cl [CBK266489],99.4
3,Cc1cc(C)n(C(=O)c2ccc([N+](=O)[O-])cc2N)n1 [CBK266491],102
4,Cc1sc2nc(SCc3nc(-c4ccccc4)no3)n(-c3ccccc3)c(=O)c2c1C [CBK266492],110
5,Cc1c(C(=O)C2=C(O)C(=O)N(CCN3CCOCC3)C2c2ccccn2)cnn1-c1ccccc1 (centres unmarked) [CBK266493],112
6,Cc1[nH]c2ccccc2c1C(=O)CSc1nc2ccccc2[nH]1 [CBK266494],63.6
7,Cc1cc(Cl)c(S(=O)(=O)NCc2cccs2)cc1OCC(N)=O [CBK266496],101
8,COc1ccc(CCNC(=O)Nc2ccccc2[N+](=O)[O-])cc1 [CBK266497],96.8
9,O=C(CSC1c2ccccc2Oc2ccccc21)Nc1ccccc1C(=O)O [CBK266499],98.4
10,O=C(CSc1ccccc1)Nc1cccc(Oc2ccc3c(c2)C(=O)NC3=O)c1 [CBK266500],113
11,Cc1ccc(CNS(=O)(=O)c2ccc3ccccc3c2)cc1 [CBK266501],102
12,CC(Sc1nc2ccccc2[nH]1)c1nc2ccccc2[nH]1 (centres unmarked) [CBK266502],89.7
13,CCN1CCN(c2ccc(NC(=O)c3ccc([N+](=O)[O-])c(C)c3)cc2)CC1 [CBK266503],115
14,N=C(Nc1nc(=O)cc(CSc2ccc(Cl)cc2)[nH]1)Nc1cccc2ccccc12 [CBK266504],98.9
15,O=C(C1=C(O)C(=O)N(CCN2CCOCC2)C1c1ccccn1)c1cccs1 (centres unmarked) [CBK266508],99.3
16,Cc1cc(C)nc(N(C#N)CC(=O)N2c3ccccc3CCc3ccccc32)n1 [CBK266509],112
17,Cc1nc(-c2ccccc2)sc1C(=O)C1=C(O)C(=O)N(CCN2CCOCC2)C1c1ccccc1F (centres unmarked) [CBK266511],103
18,O=C(c1ccccc1)c1ccc(OCC(O)CN2CCN(c3ccccn3)CC2)cc1 (centres unmarked) [CBK266513],98.3
19,COc1ccc(N2C(=O)C(CC(=O)Nc3ccc(F)cc3)N(Cc3ccc4c(c3)OCO4)C2=O)cc1 (centres unmarked) [CBK266515],97
20,Cc1nc(-c2ccccc2)sc1C(=O)C1=C(O)C(=O)N(CCN2CCOCC2)C1c1cccs1 (centres unmarked) [CBK266520],102
21,CCC(C)NS(=O)(=O)c1ccc(OCC(=O)O)cc1 (centres unmarked) [CBK266521],120

row,Compound,"viability at 28.5 h, 10 µM [%]"
1,Cn1nnc2cc(C(=O)N(CCO)c3ccccc3)ccc21 [CBK266522],95.5
2,Cc1cc(Cl)c(S(=O)(=O)Nc2cccnc2)cc1OCC(N)=O [CBK266523],104
3,CC(Oc1ccccc1)C(=O)Nc1c[nH]c(=O)[nH]c1=O (centres unmarked) [CBK266524],72.3
4,O=C(CSc1nnc2sc3ccccc3n12)N1N=CCC1c1ccccc1 (centres unmarked) [CBK266527],87.1
5,Cc1cccc(Oc2nc3c(C)cccn3c(=O)c2/C=C(\C#N)c2nc3ccccc3[nH]2)c1 [CBK266528],104
6,COc1ccc(C(=O)C2=C(O)C(=O)N(CCCN(C)C)C2c2ccncc2)cc1Cl (centres unmarked) [CBK266529],109
7,COCc1c(Br)c(C)nc(OCC(=O)O)c1C#N [CBK266532],96.9
8,Cc1cccc(NC(=O)COc2ccccc2CNc2ccc(Br)cc2)c1 [CBK266534],101
9,Cc1cc(Cl)c(S(=O)(=O)Nc2cccc(Br)c2)cc1OCC(N)=O [CBK266535],100
10,Cc1ccc(C(=O)C2=C(O)C(=O)N(CCN(C)C)C2c2ccccn2)o1 (centres unmarked) [CBK266536],119
11,COc1ccc(C(C)C)cc1S(=O)(=O)NCCN1CCOCC1 [CBK266538],112
12,Cc1c(C(=O)C2=C(O)C(=O)N(Cc3cccnc3)C2c2ccc(F)cc2)cnn1-c1ccccc1 (centres unmarked) [CBK266541],105
13,Cc1ccc(S(=O)(=O)NC(C)C(=O)Nc2cc(C(F)(F)F)ccc2Cl)cc1 (centres unmarked) [CBK266546],109
14,Cc1nnc(SCc2cc(=O)nc(Nc3nc(C)c4ccccc4n3)[nH]2)s1 [CBK266549],103
15,O=C(Nc1ccc(S(=O)(=O)N2CCOCC2)cc1)c1ccc(CN2CCc3ccccc3C2)cc1 [CBK266550],96.2
16,COc1cccc(CNC(C)(C)CO)c1OCc1ccc(Cl)cc1 [CBK266552C],102
17,Cc1cc(Cl)c(S(=O)(=O)N2CCN(c3ccccn3)CC2)cc1OCC(N)=O [CBK266553],117
18,Nc1nc(SCC(=O)c2ccc3c(c2)OCCO3)n[nH]1 [CBK266554],107
19,COc1ccc(F)cc1S(=O)(=O)N1CCCN(S(=O)(=O)c2cc(F)ccc2OC)CC1 [CBK266555],93.5

# Same assay, conditions: human, hela cells, % viability, bulk resorufin, single well
row,Compound,"viability at 28.5 h, 10 µM [%]"
1,O=C1NC(=O)C(CCc2ccccn2)(Cc2ccc3c(c2)OCO3)C(=O)N1CCc1ccccc1 (centres unmarked) [CBK266392],98.7
